Data from patent US12492194B2, “HPK1 inhibitors” (Janssen Pharmaceutica NV, priority 2019, dated 2025).

How the values were obtained:
full-length human Hpk1 = molecular target: T1, full-length human Hpk1 (Homo sapiens, UniProt Q92918); experiment: HPK1 kinase assay (ADP Glo Kinase Assay); format: biochemical; conditions: full-length human GST-Hpk1, ADP Glo, 75 μM ATP; read-out: Hpk1 biochemical (pIC50) (converted)
T1 construct: A recombinant fusion protein consisting of full-length human Hpk1; GST (N)
Description: Pharmacological Part HPK1 Kinase Assay
A recombinant fusion protein consisting of full-length human Hpk1 with an N-terminal Glutatione S-transferase (GST) tag was produced in a baculovirus/insect cell expression system. GST-Hpk1 protein was purified from cell lysates by glutathione sepharose affinity chromatography. Kinase inhibition was determined using the ADP Glo™ Kinase Assay kit (Promega, V9101). Test compounds were prepared by serial dilution in dimethyl sulfoxide (DMSO) and 0.1 μl of each dilution was spotted onto a 384-well white Proxiplate (Perkin Elmer, 6008289). 8 μl of kinase assay buffer (40 mM Tris pH 7.5, 2 mM dithiothreitol (DTT), 0.05% Bovine Serum Albumin, 5 mM MgCl2) containing Hpk1 protein was transferred to each well and incubated for 30-45 minutes at room temperature. The enzymatic reaction was started by adding 2 μl of kinase assay buffer containing 75 μM ATP. After 120 minutes, the reaction was stopped by adding 3 μl of ADP Glo™ reagent (Promega, V9101) and incubating 45 minutes at room temperature.

Hpk1 = Hpk1 (Homo sapiens, UniProt Q92918); experiment: SLP76 phosphorylation assay (SLP76 pS376 in lysates of HEK293 cells engineered to express Hpk1 and SLP76); format: cell-based; conditions: HEK293 cells expressing Hpk1 and SLP76, 4 hours incubation; read-out: pSLP76 (HEK293) (pIC50) (converted)
Description: SLP76 Phosphorylation Assay
Hpk1 inhibition in cells was determined by detection of SLP76 phosphorylation at S376 in lysates from HEK293 cells engineered to express Hpk1 and SLP76. Serial dilutions of test compounds were prepared in cell culture medium and 20 μl was transferred into each well of a 96-well plate containing HEK293 cells in 180 μl of culture medium. After incubation for 4 hours at 37° C./5% CO2, the culture medium was removed, plates were put on ice and cells washed with cold Minimal Essential Medium before lysing in 90 μl of cold Mammalian Protein Extraction Reagent (Thermo Scientific, 78501) for 30 minutes on ice. The cell lysates were transferred to another 96-well plate, centrifuged 10 minutes at 3000 rcf (4° C.) and 30 μl transferred to a 96-well High-bind plate (MSD, L15XB-3). After coating overnight at 4° C., the cell lysate was removed, wells were washed with base buffer (TBS, 0.2% Tween-20), and blocking solution (base buffer containing 3% MSD blocker A) was added to each well for 1 hour at room temperature. The blocking solution was removed, the wells were washed with base buffer, and detection antibody (SLP76 pS376) was added in 25 μl base buffer containing 1% MSD blocker A to each well. After a 2 h incubation at room temperature, the detection antibody was removed, wells were washed four times with base buffer, 25 μl SULFO-TAG labeled goat anti-rabbit secondary antibody (MSD, R32AB-1) in base buffer containing 1% MSD blocker A was added to each well and left for 1 hour at room temperature. Wells were washed 4 times with base buffer, 150 μl Read Buffer T was added to each well, and the plates were read in a Mesoscale plate reader (MSD). IC50 values were determined by curve-fitting the electrochemiluminescent signals obtained from the lysates of HEK293 cells expressing Hpk1 and SLP76 treated with test compounds at various concentrations minus the signal obtained from HEK293 cells expressing SLP76 only.

Hpk1, sequence (Q92918 whole entry): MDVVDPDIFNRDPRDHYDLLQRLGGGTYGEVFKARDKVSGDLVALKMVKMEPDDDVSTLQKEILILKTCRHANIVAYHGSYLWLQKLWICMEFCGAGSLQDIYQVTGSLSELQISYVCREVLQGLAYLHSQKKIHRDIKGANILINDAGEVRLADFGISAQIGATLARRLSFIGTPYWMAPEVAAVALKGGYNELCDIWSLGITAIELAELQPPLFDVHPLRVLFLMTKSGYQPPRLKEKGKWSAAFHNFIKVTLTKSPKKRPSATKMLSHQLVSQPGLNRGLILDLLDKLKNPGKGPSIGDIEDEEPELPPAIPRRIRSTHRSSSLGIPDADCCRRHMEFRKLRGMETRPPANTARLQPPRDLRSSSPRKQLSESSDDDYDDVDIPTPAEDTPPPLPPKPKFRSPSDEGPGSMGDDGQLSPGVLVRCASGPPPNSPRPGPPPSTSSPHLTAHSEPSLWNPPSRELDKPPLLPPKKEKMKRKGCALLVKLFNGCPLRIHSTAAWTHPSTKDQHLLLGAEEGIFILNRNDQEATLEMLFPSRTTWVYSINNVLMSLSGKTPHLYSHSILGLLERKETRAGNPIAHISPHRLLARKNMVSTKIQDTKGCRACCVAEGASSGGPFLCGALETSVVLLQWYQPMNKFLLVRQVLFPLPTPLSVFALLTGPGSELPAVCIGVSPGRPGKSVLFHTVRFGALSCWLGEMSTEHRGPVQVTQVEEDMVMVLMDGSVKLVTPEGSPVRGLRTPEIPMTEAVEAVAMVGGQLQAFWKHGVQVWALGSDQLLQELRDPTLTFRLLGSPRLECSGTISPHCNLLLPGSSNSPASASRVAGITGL
T1 sequence (Q92918 whole entry, the tested form may be a part): as the sequence (Q92918 whole entry) above

SMILES | IC50 (full-length human Hpk1) [nM] | IC50 (Hpk1) [nM]
Nc1ncc(-c2ccc(C3CCOCC3)c([C@@H]3CCCN3)c2)cc1-c1cn[nH]c1 [Co. 23] | 1.02 | 302
Nc1ncc(-c2ccc(C3=CCSCC3)c([C@@H]3CCCN3)c2)cc1-c1ccnc(F)c1 [Co. 48] | 25.1 | 1320
Nc1ncc(-c2ccc(C3=CCS(=O)(=O)CC3)c([C@@H]3CCCN3)c2)cc1-c1ccnc(F)c1 [Co. 49] | 24 | 2510
C[C@H]1CCN[C@@H]1c1cc(-c2cnc(N)c(-c3ccncc3)c2)ccc1C1CCOCC1 (racemic) [Co. 9] | 42.7 | 2140
Nc1ncc(-c2ccc(C3CCOCC3)c([C@H]3C[S@+]([O-])CCN3)c2)cc1-c1ccnc(F)c1 (single isomer, unassigned) [Co. 15d] | 6920 | > 10000
N#Cc1ccc(-c2cc(-c3ccc(C4CCOCC4)c([C@@H]4CCCN4)c3)cnc2N)cc1 [Co. 36] | 7.94 | 692
[2H]c1cc(-c2cc(-c3ccc(C4CCOCC4)c([C@@H]4CCCN4)c3)cnc2N)ccn1 [Co. 64] | 17 | 380
COc1cnccc1-c1cc(-c2ccc(C3CCOCC3)c([C@@H]3CCCN3)c2)cnc1N [Co. 24] | 13.2 | 891
Nc1ncc(-c2ccc(C3CCOCC3)c([C@@H]3COCCN3)c2)cc1-c1ccnc(F)c1 [Co. 82] | 8.71 | 126
N#Cc1ccc(-c2cnc(N)c(-c3ccnc(F)c3)c2)cc1[C@@H]1CCCN1 [Co. 60] | 251 | > 10000
Nc1ncc(-c2ccc(C3CCOCC3)c([C@H]3CCCN3)c2)cc1-c1ccncc1 [Co. 25b] | 955 | > 10000
Nc1ncc(-c2ccc(C3CCOCC3)c([C@@H]3CCCN3)c2)cc1-c1ccnc(Cl)c1 [Co. 17] | 15.8 | 1580
Nc1ncc(-c2ccc(C3CCOCC3)c([C@@H]3CCCN3)c2)cc1-c1cccnc1 [Co. 4] | 42.7 | 3720
